This passage reports logP results from patent EP2138586A1, “Process for the regioselective preparation of disaccharides or oligosaccharides” (Cognis IP Management GmbH, priority 2008, dated 2009).

The data set can be described thus: log P of the solvents used in the transglycosylation (Table 1). The data set is classed as physicochemical. To be noted: property of the dialkyl amide solvent; method not described.

Consider `CCCCCCCC(=O)N(C)C` [CDMA, caprylic dimethyl amide], for which the logP (as a rule, the decadic logarithm of the partition coefficient of the neutral form, usually between octanol and water) is 1.42. `CC(O)C(=O)N(C)C` (centres unmarked) [LDMA, lactic acid dimethyl amide] came in with a logP of -0.69.
